Test results as given in US10493077B2, “Fused imidazo-piperidine JAK inhibitor compound” (THERAVANCE BIOPHARMA R&D IP, LLC, priority 2017, dated 2019).

How the values were obtained:
35 different kinases = assay: Kinome screen: GINI coefficient; type: binding; conditions: panel of 35 different kinases; higher number = more selective
Description: (§1) Kinase-tagged T7 phage strains were grown in parallel in 24-well blocks in an E. coli host derived from the BL21 strain. E. coli were grown to log-phase and infected with T7 phage from a frozen stock (multiplicity of infection=0.4) and incubated with shaking at 32° C. until lysis (90-150 minutes). The lysates were centrifuged (6,000×g) and filtered (0.2 μm) to remove cell debris. The remaining kinases were produced in HEK-293 cells and subsequently tagged with DNA for qPCR detection.
Streptavidin-coated magnetic beads were treated with biotinylated small molecule ligands for 30 minutes at room temperature to generate affinity resins for kinase assays. The liganded beads were blocked with excess biotin and washed with blocking buffer (SeaBlock (Pierce), 1% BSA, 0.05% Tween 20, 1 mM DTT) to remove unbound ligand and to reduce non-specific phage binding. […] Test compounds were prepared as 40× stocks in 100% DMSO and directly diluted into the assay. All reactions were performed in polypropylene 384-well plates in a final volume of 0.04 ml. […] The kinase concentration in the eluates was measured by qPCR.
Both compounds 1 and C-1 were screened against 35 different kinases. The Gini coefficient was determined for both compounds. […]

SYK = molecular target: T1, SYK (Homo sapiens, UniProt P43405); assay: Kinome screen, SYK; type: binding; conditions: screened at 1 μM
T1 construct: made in house; host or cells: T7 phage in E. coli (BL21-derived) or HEK-293
Description: as §1
(§2) Streptavidin-coated magnetic beads were treated with biotinylated small molecule ligands for 30 minutes at room temperature to generate affinity resins for kinase assays. The liganded beads were blocked with excess biotin and washed with blocking buffer (SeaBlock (Pierce), 1% BSA, 0.05% Tween 20, 1 mM DTT) to remove unbound ligand and to reduce non-specific phage binding. […] Test compounds were prepared as 40× stocks in 100% DMSO and directly diluted into the assay. All reactions were performed in polypropylene 384-well plates in a final volume of 0.04 ml. […] The beads were then re-suspended in elution buffer (1×PBS, 0.05% Tween 20, 0.5 μM non-biotinylated affinity ligand) and incubated at room temperature with shaking for 30 minutes. The kinase concentration in the eluates was measured by qPCR.

AURKA = molecular target: T2, AURKA (Homo sapiens, UniProt O14965); assay: Kinome screen, AURKA; type: binding; conditions: screened at 1 μM
T2 construct: made in house; host or cells: T7 phage in E. coli (BL21-derived) or HEK-293
T2 sequence (O14965 whole entry): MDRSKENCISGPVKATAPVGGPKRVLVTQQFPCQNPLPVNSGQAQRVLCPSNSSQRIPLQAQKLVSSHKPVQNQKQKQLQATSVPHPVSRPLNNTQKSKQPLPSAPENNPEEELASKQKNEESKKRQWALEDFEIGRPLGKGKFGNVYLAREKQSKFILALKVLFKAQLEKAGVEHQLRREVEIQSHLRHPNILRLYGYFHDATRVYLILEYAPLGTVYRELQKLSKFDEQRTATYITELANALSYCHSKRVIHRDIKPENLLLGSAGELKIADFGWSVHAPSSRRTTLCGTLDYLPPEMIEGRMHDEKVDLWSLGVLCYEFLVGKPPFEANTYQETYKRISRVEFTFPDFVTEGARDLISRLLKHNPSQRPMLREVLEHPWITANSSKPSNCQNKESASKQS
Description: as §1, §2

PLK4 = molecular target: T3, PLK4 (Homo sapiens, UniProt O00444); assay: Kinome screen, PLK4; type: binding; conditions: screened at 1 μM
T3 construct: made in house; host or cells: T7 phage in E. coli (BL21-derived) or HEK-293
Description: as §1, §2

ALK = molecular target: T4, ALK (Homo sapiens, UniProt Q9UM73); assay: Kinome screen, ALK; type: binding; conditions: screened at 1 μM
T4 construct: made in house; host or cells: T7 phage in E. coli (BL21-derived) or HEK-293
Description: as §1, §2

PAK4 = molecular target: T5, PAK4 (Homo sapiens, UniProt O96013); assay: Kinome screen, PAK4; type: binding; conditions: screened at 1 μM
T5 construct: made in house; host or cells: T7 phage in E. coli (BL21-derived) or HEK-293
T5 sequence (O96013 whole entry): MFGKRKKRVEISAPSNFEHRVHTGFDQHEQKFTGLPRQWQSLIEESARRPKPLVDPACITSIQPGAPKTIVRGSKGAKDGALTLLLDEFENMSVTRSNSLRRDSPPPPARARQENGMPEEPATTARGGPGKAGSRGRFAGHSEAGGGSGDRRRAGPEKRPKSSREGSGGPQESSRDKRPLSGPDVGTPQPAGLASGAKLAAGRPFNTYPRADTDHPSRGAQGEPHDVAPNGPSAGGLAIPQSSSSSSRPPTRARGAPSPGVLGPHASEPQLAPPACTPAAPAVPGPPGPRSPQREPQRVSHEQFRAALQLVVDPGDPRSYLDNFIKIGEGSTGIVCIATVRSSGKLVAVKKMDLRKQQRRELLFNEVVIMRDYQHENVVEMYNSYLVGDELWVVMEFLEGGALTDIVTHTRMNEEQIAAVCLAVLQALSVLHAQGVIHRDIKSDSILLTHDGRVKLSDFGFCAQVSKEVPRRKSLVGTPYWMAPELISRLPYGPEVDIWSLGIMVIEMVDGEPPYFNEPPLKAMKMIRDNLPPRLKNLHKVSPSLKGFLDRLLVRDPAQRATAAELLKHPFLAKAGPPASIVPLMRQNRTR
Description: as §1, §2

SRC = molecular target: T6, SRC (Homo sapiens, UniProt P12931); assay: Kinome screen, SRC; type: binding; conditions: screened at 1 μM
T6 construct: made in house; host or cells: T7 phage in E. coli (BL21-derived) or HEK-293
Description: as §1, §2

CDK9 = molecular target: T7, CDK9 (Homo sapiens, UniProt P50750); assay: Kinome screen, CDK9; type: binding; conditions: screened at 1 μM
T7 construct: made in house; host or cells: T7 phage in E. coli (BL21-derived) or HEK-293
T7 sequence (P50750 whole entry): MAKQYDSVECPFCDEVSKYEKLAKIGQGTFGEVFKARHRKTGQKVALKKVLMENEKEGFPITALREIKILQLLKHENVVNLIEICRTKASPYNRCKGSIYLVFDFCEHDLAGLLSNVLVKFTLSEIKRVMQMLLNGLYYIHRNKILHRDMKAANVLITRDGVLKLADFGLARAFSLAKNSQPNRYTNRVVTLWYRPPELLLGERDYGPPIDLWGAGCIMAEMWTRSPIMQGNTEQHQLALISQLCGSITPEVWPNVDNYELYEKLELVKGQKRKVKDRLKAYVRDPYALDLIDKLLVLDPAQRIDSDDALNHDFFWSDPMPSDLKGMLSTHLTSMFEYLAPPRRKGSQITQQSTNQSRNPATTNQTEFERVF
Description: as §1, §2

VEGFR2 = molecular target: T8, VEGFR2 (Homo sapiens, UniProt P35968); assay: Kinome screen, VEGFR2; type: binding; conditions: screened at 1 μM
T8 construct: made in house; host or cells: T7 phage in E. coli (BL21-derived) or HEK-293
T8 sequence (P35968 20-1356): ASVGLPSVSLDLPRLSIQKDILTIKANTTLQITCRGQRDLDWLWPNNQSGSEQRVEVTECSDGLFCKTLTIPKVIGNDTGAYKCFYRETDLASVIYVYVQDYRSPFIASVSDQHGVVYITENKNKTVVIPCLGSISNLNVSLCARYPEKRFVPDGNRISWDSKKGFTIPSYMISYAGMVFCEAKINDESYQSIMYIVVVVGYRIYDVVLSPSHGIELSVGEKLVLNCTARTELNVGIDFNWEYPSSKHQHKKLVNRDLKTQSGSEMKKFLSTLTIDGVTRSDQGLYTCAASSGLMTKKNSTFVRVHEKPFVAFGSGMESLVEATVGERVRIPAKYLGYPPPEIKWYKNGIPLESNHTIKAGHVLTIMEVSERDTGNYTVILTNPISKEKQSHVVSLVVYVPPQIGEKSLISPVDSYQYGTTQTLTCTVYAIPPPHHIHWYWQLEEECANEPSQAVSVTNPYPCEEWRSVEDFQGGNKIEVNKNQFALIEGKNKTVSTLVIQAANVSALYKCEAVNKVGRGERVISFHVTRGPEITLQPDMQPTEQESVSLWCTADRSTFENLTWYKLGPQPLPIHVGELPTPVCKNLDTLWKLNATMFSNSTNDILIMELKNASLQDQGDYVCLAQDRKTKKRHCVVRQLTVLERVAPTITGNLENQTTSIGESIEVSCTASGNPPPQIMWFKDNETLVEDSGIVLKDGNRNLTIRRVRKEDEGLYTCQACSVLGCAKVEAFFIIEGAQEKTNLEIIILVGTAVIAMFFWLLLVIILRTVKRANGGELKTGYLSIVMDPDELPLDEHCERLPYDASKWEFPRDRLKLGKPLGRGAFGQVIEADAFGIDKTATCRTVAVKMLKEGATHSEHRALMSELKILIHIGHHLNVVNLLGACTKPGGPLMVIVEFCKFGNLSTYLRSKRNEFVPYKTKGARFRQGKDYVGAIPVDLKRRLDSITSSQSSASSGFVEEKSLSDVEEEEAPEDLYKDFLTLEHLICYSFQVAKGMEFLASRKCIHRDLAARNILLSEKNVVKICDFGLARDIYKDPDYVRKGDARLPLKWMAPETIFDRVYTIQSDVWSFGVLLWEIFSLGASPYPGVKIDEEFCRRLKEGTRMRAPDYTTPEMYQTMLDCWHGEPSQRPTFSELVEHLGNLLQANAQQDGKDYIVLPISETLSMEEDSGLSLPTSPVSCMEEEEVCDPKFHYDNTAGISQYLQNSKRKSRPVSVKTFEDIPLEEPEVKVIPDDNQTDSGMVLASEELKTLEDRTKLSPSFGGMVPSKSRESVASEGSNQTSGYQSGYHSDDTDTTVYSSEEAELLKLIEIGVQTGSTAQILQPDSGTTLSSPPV
Description: as §1, §2

PKAC-ALPHA = molecular target: T9, PKAC-ALPHA (Homo sapiens, UniProt P17612); assay: Kinome screen, PKAC-ALPHA; type: binding; conditions: screened at 1 μM
T9 construct: made in house; host or cells: T7 phage in E. coli (BL21-derived) or HEK-293
Description: as §1, §2

SLK = molecular target: T10, SLK (Homo sapiens, UniProt Q9H2G2); assay: Kinome screen, SLK; type: binding; conditions: screened at 1 μM
T10 construct: made in house; host or cells: T7 phage in E. coli (BL21-derived) or HEK-293
T10 sequence (Q9H2G2 whole entry): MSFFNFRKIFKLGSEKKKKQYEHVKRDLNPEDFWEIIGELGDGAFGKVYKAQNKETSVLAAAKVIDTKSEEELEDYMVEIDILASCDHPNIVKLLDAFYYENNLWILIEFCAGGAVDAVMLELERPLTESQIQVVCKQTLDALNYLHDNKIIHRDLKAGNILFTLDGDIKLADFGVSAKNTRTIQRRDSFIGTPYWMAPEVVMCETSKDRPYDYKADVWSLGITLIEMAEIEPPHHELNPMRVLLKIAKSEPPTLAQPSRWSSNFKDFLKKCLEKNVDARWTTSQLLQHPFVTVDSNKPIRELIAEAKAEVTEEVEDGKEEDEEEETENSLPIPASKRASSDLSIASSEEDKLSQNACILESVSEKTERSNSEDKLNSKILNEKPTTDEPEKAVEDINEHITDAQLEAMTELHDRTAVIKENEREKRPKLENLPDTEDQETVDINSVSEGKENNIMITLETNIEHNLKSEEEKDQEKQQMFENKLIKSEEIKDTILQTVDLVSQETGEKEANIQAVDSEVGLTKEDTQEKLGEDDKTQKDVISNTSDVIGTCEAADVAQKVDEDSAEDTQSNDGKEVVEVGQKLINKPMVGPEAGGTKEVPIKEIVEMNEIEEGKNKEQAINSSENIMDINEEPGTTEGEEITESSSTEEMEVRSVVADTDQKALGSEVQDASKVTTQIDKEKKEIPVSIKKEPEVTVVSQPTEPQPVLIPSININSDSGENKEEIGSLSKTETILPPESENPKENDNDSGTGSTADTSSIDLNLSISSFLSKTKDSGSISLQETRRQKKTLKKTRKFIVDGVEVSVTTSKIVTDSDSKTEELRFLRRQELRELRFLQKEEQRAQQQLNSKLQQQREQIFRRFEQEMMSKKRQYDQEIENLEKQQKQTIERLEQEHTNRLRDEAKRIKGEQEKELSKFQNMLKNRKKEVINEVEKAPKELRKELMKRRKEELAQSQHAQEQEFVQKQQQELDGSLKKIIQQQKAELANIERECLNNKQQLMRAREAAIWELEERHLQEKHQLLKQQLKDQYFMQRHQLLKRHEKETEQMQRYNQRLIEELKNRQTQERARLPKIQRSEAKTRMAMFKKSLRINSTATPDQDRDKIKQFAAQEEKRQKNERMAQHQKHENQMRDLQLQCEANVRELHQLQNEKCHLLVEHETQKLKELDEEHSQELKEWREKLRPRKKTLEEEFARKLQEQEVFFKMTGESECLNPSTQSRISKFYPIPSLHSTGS
Description: as §1, §2

KIT = molecular target: T11, KIT (Homo sapiens, UniProt P10721); assay: Kinome screen, KIT; type: binding; conditions: screened at 1 μM
T11 construct: made in house; host or cells: T7 phage in E. coli (BL21-derived) or HEK-293
Description: as §1, §2

GSK3B = molecular target: T12, GSK3B (Homo sapiens, UniProt P49841); assay: Kinome screen, GSK3B; type: binding; conditions: screened at 1 μM
T12 construct: made in house; host or cells: T7 phage in E. coli (BL21-derived) or HEK-293
Description: as §1, §2

CSF1R = molecular target: T13, CSF1R (Homo sapiens, UniProt P07333); assay: Kinome screen, CSF1R; type: binding; conditions: screened at 1 μM
T13 construct: made in house; host or cells: T7 phage in E. coli (BL21-derived) or HEK-293
Description: as §1, §2

EPHB6 = molecular target: T14, EPHB6 (Homo sapiens, UniProt O15197); assay: Kinome screen, EPHB6; type: binding; conditions: screened at 1 μM
T14 construct: made in house; host or cells: T7 phage in E. coli (BL21-derived) or HEK-293
T14 sequence (O15197 32-1021): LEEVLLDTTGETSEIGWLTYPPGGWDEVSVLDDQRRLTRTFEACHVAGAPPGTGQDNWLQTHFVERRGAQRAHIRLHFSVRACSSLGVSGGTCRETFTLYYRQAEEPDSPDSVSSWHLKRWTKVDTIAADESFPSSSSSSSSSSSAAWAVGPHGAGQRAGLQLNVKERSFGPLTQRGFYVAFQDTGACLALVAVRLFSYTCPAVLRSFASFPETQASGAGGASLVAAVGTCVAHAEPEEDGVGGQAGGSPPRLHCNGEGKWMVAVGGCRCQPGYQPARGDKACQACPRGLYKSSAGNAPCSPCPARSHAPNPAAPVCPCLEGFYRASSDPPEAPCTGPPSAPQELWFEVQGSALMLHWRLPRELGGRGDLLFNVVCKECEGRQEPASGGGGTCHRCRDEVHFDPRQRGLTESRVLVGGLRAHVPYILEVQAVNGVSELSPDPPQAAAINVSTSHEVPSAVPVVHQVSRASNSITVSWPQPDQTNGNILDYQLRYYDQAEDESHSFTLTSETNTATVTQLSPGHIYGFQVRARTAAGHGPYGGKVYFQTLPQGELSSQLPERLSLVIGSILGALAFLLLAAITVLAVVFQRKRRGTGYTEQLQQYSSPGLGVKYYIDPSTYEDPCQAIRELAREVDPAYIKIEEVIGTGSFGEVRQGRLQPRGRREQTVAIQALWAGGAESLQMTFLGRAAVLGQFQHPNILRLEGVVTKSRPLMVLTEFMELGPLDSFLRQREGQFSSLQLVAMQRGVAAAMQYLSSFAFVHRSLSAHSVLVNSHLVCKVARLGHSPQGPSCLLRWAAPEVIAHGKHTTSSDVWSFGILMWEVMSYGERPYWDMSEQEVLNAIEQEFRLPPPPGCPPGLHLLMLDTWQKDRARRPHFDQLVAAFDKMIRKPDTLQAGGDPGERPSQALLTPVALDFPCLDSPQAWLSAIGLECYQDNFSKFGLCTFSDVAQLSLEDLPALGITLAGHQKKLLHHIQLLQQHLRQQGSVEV
Description: as §1, §2

CDK2 = molecular target: T15, CDK2 (Homo sapiens, UniProt P24941); assay: Kinome screen, CDK2; type: binding; conditions: screened at 1 μM
T15 construct: made in house; host or cells: T7 phage in E. coli (BL21-derived) or HEK-293
Description: as §1, §2

CDK7 = molecular target: T16, CDK7 (Homo sapiens, UniProt P50613); assay: Kinome screen, CDK7; type: binding; conditions: screened at 1 μM
T16 construct: made in house; host or cells: T7 phage in E. coli (BL21-derived) or HEK-293
Description: as §1, §2

[1] = test system: BEAS-2B human lung epithelial cells; assay: CellTiter-Glo cell viability/cytotoxicity assay; type: cell-based; conditions: BEAS-2B cells, 48 h, concentration at 15% inhibition threshold
Description: A CellTiter-Glo luminescent cell viability/cytotoxicity assay was carried out in BEAS-2B human lung epithelial cells (ATCC) under the normal growth condition.
Cells were grown at 37° C. in a 5% CO2 humidified incubator in 50% DMEM/50% F-12 medium (Life Technologies) supplemented with 10% FBS (Hyclone), 100 U/mL penicillin, 100 μg/mL streptomycin (Life Technologies), and 2 mM GlutaMAX (Life Technologies). On day 1 of the assay, cells were seeded at a 500 cells/well density in white 384-well tissue culture plates (Corning) with 25 μL medium, and were allowed to adhere overnight in the incubator. On day 2 of the assay, 5 μL of medium containing dose-responses of test compounds was added, and incubated at 37° C. for 48 h. 30 μL of CellTiter-Glo detection solution (Promega) was subsequently added, mixed on an orbital shaker for 5 min, and incubated for additional 10 min before being read on the EnVision reader. Luminescence signals were recorded and percent DMSO control values were calculated.
For dose-response analysis, percent DMSO control data were plotted vs. compound concentrations to derive dose-response curves by line connecting each data point. The concentration at which each curve crosses the 15% inhibition threshold is defined as CC15.

[2] = Dynamic moisture sorption assessment; type: physicochemical; conditions: for weight gain, 5% to 70% relative humidity / weight gain, 5% to 90% relative humidity: room temperature
Description: Dynamic moisture sorption (DMS) measurement was performed using a VTI atmospheric microbalance, SGA-100 system (VTI Corp., Hialeah, Fla. 33016). A weighed sample was used and the humidity was lowest possible value (close to 0% RH) at the start of the analysis. The DMS analysis consisted of an initial drying step (0% RH) for 120 minutes, followed by two cycles of sorption and desorption with a scan rate of 5% RH/step over the humidity range of 5% RH to 90% RH. The DMS run was performed isothermally at 25° C.

[3] = Solid state stability assessment of Form 1; type: physicochemical
Description: Samples of the Form 1 crystalline free form of the invention were stored at 25° C. and 60% relative humidity (RH) and at 40° C. and 75% RH under two configurations a) open glass vial and b) closed glass vial placed inside an HDPE bottle containing desiccant. HDPE bottle was induction sealed. At specific intervals, the contents of a representative sample were removed and analyzed by HPLC for chemical purity (shown below as HPLC Purity (% a/a)).

CCc1cc(O)c(F)cc1-c1ccc2c(-c3nc4c([nH]3)CCN(C(=O)CN3CCOCC3)C4)n[nH]c2c1 [C-1, 1-(2-(6-(2-Ethyl-5-fluoro-4-hydroxyphenyl)-1H-indazol-3-yl)-1,4,6,7-tetrahydro-5H-imidazo[4,5-c]pyridin-5-yl)-2-morpholinoethan-1-one, reference compound]
GINI coefficient (35 different kinases): 0.46
inhibition at 1 µM (SYK): 78%
inhibition at 1 µM (AURKA): 57%
inhibition at 1 µM (PLK4): 68%
inhibition at 1 µM (ALK): 81%
inhibition at 1 µM (PAK4): 99%
inhibition at 1 µM (SRC): 100%
inhibition at 1 µM (CDK9): 95%
inhibition at 1 µM (VEGFR2): 63%
inhibition at 1 µM (PKAC-ALPHA): 70%
inhibition at 1 µM (SLK): 100%
inhibition at 1 µM (KIT): 99%
inhibition at 1 µM (GSK3B): 68%
inhibition at 1 µM (CSF1R): 100%
inhibition at 1 µM (EPHB6): 98%
inhibition at 1 µM (CDK2): 53%
inhibition at 1 µM (CDK7): 99%
CC15 [1]: 0.63 µM

CCc1cc(O)c(F)cc1-c1cc(F)c2c(-c3nc4c([nH]3)CCN(C(=O)CN3CCOCC3)C4)n[nH]c2c1 [Form 2, 1-(2-(6-(2-Ethyl-5-fluoro-4-hydroxyphenyl)-4-fluoro-1H-indazol-3-yl)-1,4,6,7-tetrahydro-5H-imidazo[4,5-c]pyridin-5-yl)-2-morpholinoethan-1-one]
hygroscopicity [2]: non-hygroscopic
weight gain, 5% to 70% relative humidity [2]: about 0.12%
weight gain, 5% to 90% relative humidity [2]: about 0.18%

CCc1cc(O)c(F)cc1-c1cc(F)c2c(-c3nc4c([nH]3)CCN(C(=O)CN3CCOCC3)C4)n[nH]c2c1 [Form 1, 1-(2-(6-(2-Ethyl-5-fluoro-4-hydroxyphenyl)-4-fluoro-1H-indazol-3-yl)-1,4,6,7-tetrahydro-5H-imidazo[4,5-c]pyridin-5-yl)-2-morpholinoethan-1-one]
HPLC Purity ([3]; 2 weeks, 40° C./75% RH Open): 98.72 % a/a
HPLC Purity ([3]; 4 weeks, 25° C./60% RH Closed With Desiccant): 98.75 % a/a
HPLC Purity ([3]; 4 weeks, 25° C./60% RH Open): 98.75 % a/a
HPLC Purity ([3]; 4 weeks, 40° C./75% RH Closed With Desiccant): 98.75 % a/a
HPLC Purity ([3]; 4 weeks, 40° C./75% RH Open): 98.70 % a/a
HPLC Purity ([3]; 8 weeks, 25° C./60% RH Closed With Desiccant): 98.87 % a/a
HPLC Purity ([3]; 8 weeks, 25° C./60% RH Open): 98.75 % a/a
HPLC Purity ([3]; 8 weeks, 40° C./75% RH Closed With Desiccant): 98.80 % a/a
HPLC Purity ([3]; 8 weeks, 40° C./75% RH Open): 98.97 % a/a
HPLC Purity ([3]; 24 weeks, 25° C./60% RH Closed With Desiccant): 99.02 % a/a
HPLC Purity ([3]; 24 weeks, 25° C./60% RH Open): 98.78 % a/a
HPLC Purity ([3]; 24 weeks, 40° C./75% RH Closed With Desiccant): 99.06 % a/a
HPLC Purity ([3]; 24 weeks, 40° C./75% RH Open): 98.89 % a/a
HPLC Purity ([3]; 36 weeks, 25° C./60% RH Closed With Desiccant): 98.80 % a/a
HPLC Purity ([3]; 36 weeks, 25° C./60% RH Open): 98.75 % a/a
HPLC Purity ([3]; 36 weeks, 40° C./75% RH Closed With Desiccant): 98.86 % a/a
HPLC Purity ([3]; 36 weeks, 40° C./75% RH Open): 98.71 % a/a
changes in chemical purity ([3]; after 36 weeks at accelerated conditions of 40° C. and 75% relative humidity): no statistically significant changes
HPLC Purity ([3]; time point 0 weeks): 98.73 % a/a
hygroscopicity [2]: slightly-hygroscopic
weight gain, 5% to 70% relative humidity [2]: about 0.99%
weight gain, 5% to 90% relative humidity [2]: about 1.32%
